The results in this text go back to a melting point compilation (Tetko et al.; mined from patent text by program, amines drawn as free bases though some values may be those of a salt).

The structures appear in SMILES notation.

Broadly, the melting point is the temperature of the solid-liquid transition. `COc1ccc(CC(=O)NCCc2ccc([N+](=O)[O-])cc2)cc1`: the melting point lay within 109 to 110 °C.

In turn, `C=CCc1c(OC)cc(C(=O)O)cc1OC` had a melting point of 56 to 57 °C.

In turn, `Cc1ccnc(C(=O)c2sc(Cl)nc2C)c1` returned a melting point of 115 to 116 °C.

On to `CN(C(=O)CCCOc1ccc2c(c1)CN1CC(=O)NC1=N2)C1CCCCC1`, for which the melting point is 243 to 244 °C.

Take `O=C(NCCCn1ccnc1-c1ccccc1)c1cc2ccccc2[nH]1`: the melting point was 167 to 169 °C.

With `Cc1nc2cnccc2n1-c1ccccc1`, the melting point fell in the range of 134 to 136 °C.

For the compound `O=C1OC(c2ccccc2)CCN1Cc1ccccc1NS(=O)(=O)C(F)(F)F` (stereo not given), the melting point came to 152 °C.

Regarding `O=C(O)c1cn(-c2nnc(C(F)(F)F)s2)c2cc(F)c(F)cc2c1=O`, the melting point is 272 to 276 °C.

`Cc1ccc(-n2nc(-c3ccc(O)cc3)c3cccnc32)cc1` came in with a melting point of 201 to 203 °C.

`CCCCCNC1=CC(=O)c2c(OC)ccc(OC)c2C1=O` had a melting point of 102 to 103 °C.

For `CN(C)C(=O)c1cc(-c2ncc(C(F)(F)F)cc2Cl)ccc1Cl`, the melting point was in the range of 90 to 91 °C.

In turn, `COc1ccccc1N1CCN([C@H]2Cc3c(OC)ccc(OC)c3C[C@H]2O)CC1` (relative stereo) came in with a melting point of 213 to 216 °C.

Compound `CC(=O)NC1Cc2cccc3cccc(c23)C1` registered a melting point of 180 to 181 °C.

Compound `COCCOc1ccc(/C=C/C(=O)NS(=O)(=O)C(F)(F)F)c(Oc2ncc(C(F)(F)F)cc2Cl)c1` had a melting point of 126 to 128 °C.

For `COc1cc(C(C)C)c2c(c1)S(=O)(=O)N(COc1cc(-c3ccccc3)nn1-c1ccccc1)C2=O`, the melting point is 62 to 76 °C.

Take `O=C(O)c1cc(-n2c(-c3cccs3)cc3c2CCCC3)ccc1O`: the melting point is 211 to 213 °C.

`COc1cc(CCNC(C)=O)c(C(=O)Cc2cc(OC)c(OC)cc2[N+](=O)[O-])cc1OC` displayed a melting point of 142 to 144 °C.

As for `CSc1ccc(C(CC(F)(F)F)=NO)cc1`, the melting point lay in the range of 106 to 107 °C.

Compound `CCOC(=O)NC(=O)c1nn(-c2cc(Cl)c(C(C)(C)C#N)c(Cl)c2)c(=O)[nH]c1=O` displayed a melting point of 110 °C.

`O=C1CC(c2ccccc2)CC(=O)O1` returned a melting point of 102 to 103 °C.

The compound `O=C1NC(=O)C(c2cn3c4c(cccc24)CCC3)C1c1ccc(O)cc1` (stereo not given) registered a melting point of 105 to 107 °C.

`CCN(CC)CCNC(=O)c1cc(Cl)c(N)cc1OCCSC`: the melting point lay in the range of 118 to 120 °C.

Compound `Cc1ccccc1-c1cnc2c(C(F)(F)F)cccc2c1-c1cccc(NC(=O)Nc2ccccc2)c1` displayed a melting point of 192 to 195 °C.

For the compound `O=c1ccoc2cc(O)ccc12`, the melting point fell in the range of 136 to 137 °C.

With `CC(=O)c1cc2cc(C(C)(C)C)ccc2o1`, the melting point lay in the range of 99 to 101 °C.

In the case of `COc1ccc(C(=O)c2ccc(=O)[nH]c2C=CN(C)C)cc1`, the melting point fell in the range of 216 to 218 °C.

In turn, `O=C1c2ccc([N+](=O)[O-])cc2C(=O)N1CC(=O)N1c2ccccc2N(Cc2ccccc2)C(=O)[C@H]2CCC[C@H]21` (relative stereo) returned a melting point of 196 to 198 °C.

On to `O=C(O)CCN1CCN(c2ccccc2Cl)CC1`, for which the melting point was 210 to 213 °C.

In the case of `COCCn1nc(-c2sc(N)nc2-c2ccccc2)ccc1=O`, the melting point lay within 208 to 210 °C.

Regarding `Cn1c(C(F)(F)F)cc(=O)n(-c2ccc3snc(C=O)c3c2)c1=O`, the melting point lay in the range of 193 to 194 °C.

The compound `CC(C)(C)NCC(O)COc1ccc(C=O)cc1` (stereo not given) registered a melting point of 123 to 126 °C.

Compound `CN1C(=O)CN=C(c2ccccc2F)c2cc(NC(=O)NC(C)(C)CO)ccc21` showed a melting point of 162 to 176 °C.

For `COC(=O)C=Cc1cn(Cc2ccc(C(=O)OC(C)(C)C)cc2OC)c2cc(C(=O)NCC3CCCC3)ccc12`, the melting point was in the range of 163 to 164 °C.

Consider `CCCC(=O)C(=O)C(CC1CCCCC1)NC(=O)C(CC(C)C)NC(=O)C(Cc1ccccc1)NC(=O)OC(C)(C)C` (stereo not given), for which the melting point lay within 87 to 92 °C.

Compound `Cc1ccccc1C(Oc1cc(OCc2ccncc2)ccc1C#N)c1nnn[nH]1` (racemic) returned a melting point of 132 to 133 °C.

Take `COc1ccc(O)cn1`: the melting point was in the range of 80 to 82 °C.

For `CCCCC(Cc1cccnc1)(C(=O)OC(C)(C)C)S(=O)(=O)c1ccc(OC)cc1` (stereo not given), the melting point was found to be 10 °C.

The compound `CNC(=O)Cc1cccc2ccoc12` yielded a melting point of 138 to 142 °C.

For `CC(CO)CCn1c(C(=O)NCc2cc(C(F)(F)F)cc(C(F)(F)F)c2)c(-c2ccccc2)c2cccnc2c1=O` (racemic), the melting point fell in the range of 213 to 214 °C.

`COc1ccc(C=CC(=O)c2ccc(OC)c(CC=C(C)C)c2O)cc1` showed a melting point of 97 to 97.5 °C.

For `COC(=O)c1ccc(NS(=O)(=O)c2ccc(F)cc2)cn1`, the melting point was in the range of 183 to 185 °C.

For the compound `CCOC(=O)C(C)Oc1ccc(C)cc1` (stereo not given), the melting point lay in the range of 78 to 82 °C.

`CCCc1c(OCc2ccccc2C(=O)O)ccc(C(C)=O)c1O` yielded a melting point of 214 to 216 °C.

Compound `COC(=O)C(C)(C)Cc1cc2cc(OCc3ccc4ccccc4n3)ccc2[nH]1` returned a melting point of 131 to 132 °C.

For `CCOC(=O)COc1ccc(N)cc1`, the melting point was 157 to 158 °C.

For `Cc1ccc(NC(=O)Nc2cc(C(C)(C)C)sc2CNC(=O)CN)cc1`, the melting point lay within 93 to 96 °C.

On to `N#Cc1cccc(C(=O)NC2CCCNC(=O)C2)c1` (stereo not given), for which the melting point lay within 221 to 222 °C.

The compound `O=C(c1ccc(F)cc1)N1CCc2cc(S(=O)(=O)N3CC(c4ccccc4)NC3=O)ccc21` (stereo not given) registered a melting point of 134 °C.

For the compound `Cc1c(C(=O)O)oc2ccc(Cc3cccnc3)cc12`, the melting point was 223 to 225 °C.

For `N#Cc1cccc(CCN2CCN(Cc3ccc(Cl)nc3)C2=N[N+](=O)[O-])c1`, the melting point lay within 204 to 206 °C.

For the compound `CC(=O)Nc1ccc(S(=O)(=O)Nc2nnc(C(C)(C)C)s2)cc1`, the melting point lay in the range of 137 to 138 °C.

For the compound `COC(=O)c1ccc2c(CCC=O)nn(C)c2c1`, the melting point was in the range of 80 to 83 °C.

Compound `COc1cc(OC)c([C@@H]2CCCC[C@H]2O)c(O)c1C(C)=O` (relative stereo) showed a melting point of 162 to 164 °C.

As for `COc1cc(N)cnc1Cl`, the melting point lay within 93 to 94 °C.

As for `CCCC1=C(C(=O)OCC)C(c2ccccc2OC(C)C)c2c[nH]nc2N1` (stereo not given), the melting point turned out to be 210 °C.

For `Cc1cc(C)nc(NC(=O)Cc2cc(Br)sc2Br)c1`, the melting point is 109 °C.

`CC(=O)c1cn(Cc2ccc(F)cc2)c(=O)n(Cc2ccc(F)cc2)c1=O` showed a melting point of 134 to 135 °C.

Consider `CC(C)(C)C(=O)C(Br)c1ccccc1` (stereo not given), for which the melting point is 38 to 42 °C.

Compound `Cc1nc(C)c(C(O)=C(C#N)c2nn(-c3ccccc3)nc2C)s1` returned a melting point of 117 to 118 °C.

Consider `Cc1ccc(-c2ncc(C)c(C)n2)cc1`, for which the melting point was found to be 114 °C.

As for `O=C1NCCN1c1ccc(S(=O)(=O)Nc2ccccc2)cc1`, the melting point fell in the range of 262 to 264 °C.

`N#Cc1cccc(-c2nc(S(=O)(=O)C(F)(F)F)cc3cccnc23)c1` showed a melting point of 102 to 104 °C.

In turn, `Cc1cc(C)c2cccc(OCc3c(Cl)ccc(S(=O)(=O)N4CCC[C@H]4C(=O)N4CCN(C(=O)c5cccc(C(N)=NO)c5)CC4)c3Cl)c2n1` came in with a melting point of 160 °C.

For the compound `Cc1nc2c(cc1C(=O)O)CCCCC2`, the melting point was 167 to 169 °C.

`CCN(C)CCc1[nH]c2ccccc2c1CSc1ccccc1` displayed a melting point of 77 to 79 °C.

Compound `CCC(=NOCc1cccs1)c1cc(Cl)ccc1NS(=O)(=O)C(F)(F)F` displayed a melting point of 53 to 54 °C.

`C=CCc1cc(C(=O)OCC)ccc1NC(C)=O` yielded a melting point of 127 to 128 °C.

For the compound `Cn1c(=O)oc2cc([N+](=O)[O-])ccc21`, the melting point was 183 to 185 °C.

The compound `Ic1ccc(OCCCCCCCN2CC2)nc1` showed a melting point of 41 to 45 °C.

The compound `CC(=O)c1sc(N2CCN(CCC3CC3)C2=O)nc1C` showed a melting point of 82 to 83 °C.

In turn, `COc1cc2c(cc1OC)CN(c1nc(N3CCc4cc(OC)c(OC)cc4C3)nc(N3CCc4cc(OC)c(OC)cc4C3)n1)CC2` gave a melting point of 166 to 169 °C.

For `CC1CCc2c(c(-c3ccccc3)nc(=O)n2C(C)C)C1` (stereo not given), the melting point was in the range of 175 to 177 °C.

As to `CCC1(C)CC2(NC(=O)N(Cc3ccc(CN4C(=O)NC5(CC(C)(CC)NC(C)(CC)C5C)C4=O)cc3)C2=O)C(C)C(C)(CC)N1` (stereo not given), the melting point was 272 to 274 °C.

In turn, `COc1ccc2c(c1)SC(CCBr)C(=O)N2` (stereo not given) displayed a melting point of 142 to 143 °C.

For the compound `CC(Cc1ccc(Br)cc1)C(=O)O` (stereo not given), the melting point lay within 69 to 70 °C.

For the compound `Nc1ccc(C(Cc2ccccc2)C(=O)O)cc1` (stereo not given), the melting point was in the range of 196 to 198 °C.

`CCOC(=O)/C=C/c1ccc(OCCOC)c(C)c1OCc1ccc(Cl)cc1Cl` returned a melting point of 92 to 92.5 °C.

Compound `N#CC(Nc1ccc(SSc2ccc(NC(C#N)c3ccc(S(N)(=O)=O)cc3)cc2)cc1)c1ccc(S(N)(=O)=O)cc1` (stereo not given) returned a melting point of 251 to 255 °C.

The compound `CCCc1c(OCCCCCCc2cc(C)c(OC)c(OC)c2C)ccc(C(=O)O)c1O` registered a melting point of 109 to 112 °C.

The compound `O=C(O)CCCOc1ccc2nc3c(cc2c1)CC(=O)N3` displayed a melting point of 260 °C.

As to `CN(C)C(=O)N(C(=O)Nc1ccccc1)c1ccccc1`, the melting point was in the range of 105 to 107 °C.

`COc1ccc(N2CCN(c3c(C)c4c(c(OC)c3C)OC(C)C4)CC2)cc1F` (stereo not given) showed a melting point of 120 to 122 °C.

For `N#Cc1ncn2c1COC(=O)c1ccccc1-2`, the melting point was 220 to 221 °C.

Take `CCOC(=O)c1cc(NCc2ccccc2)c(Nc2cccc(C)c2)c(S(N)(=O)=O)c1`: the melting point was 169 to 170 °C.

Consider `C1=CNC=c2ccccc2=C1`, for which the melting point was 128 °C.

In turn, `c1ccc(-c2nc3c([nH]2)Cc2ccccc2-3)cc1` yielded a melting point of 141 to 143 °C.

In turn, `CN(C)c1cnn(-c2ccccc2)c(=O)c1N` yielded a melting point of 188 to 189 °C.

The compound `CCN(Cc1cccc(-c2ccc(CC3SC(=O)NC3=O)cc2)c1)C(=O)OC(C)(C)C` (stereo not given) returned a melting point of 103 °C.

Consider `COC(=O)CSC1NC(=O)c2sccc2-n2cccc21` (stereo not given), for which the melting point turned out to be 158 °C.

For `COc1ccc(-c2cc(=O)n(CC3CC3)nc2-c2ccc(OC)c(F)c2)cc1F`, the melting point was in the range of 142 to 143 °C.
